What was measured:
Histamine H3 receptor [1] = target: T1, Histamine H3 receptor (Homo sapiens, UniProt Q9Y5N1); test: Binding affinity to human histamine H3 receptor
[2] = Metabolic stability in human liver microsomes assessed as half life; assay type: ADME, Microsome
Histamine H3 receptor [3] = target: T1, Histamine H3 receptor; test: Antagonist activity at human histamine H3 receptor; assay type: functional; settings: read-out: pA2 (converted)
[4] = Metabolic stability in rat liver microsomes assessed as half life; assay type: ADME, Microsome
Cytochrome P450 1A2 = target: T2, Cytochrome P450 1A2 (Homo sapiens, UniProt P05177); test: Inhibition of CYP1A2; assay type: ADME
T2 sequence (P05177 whole entry): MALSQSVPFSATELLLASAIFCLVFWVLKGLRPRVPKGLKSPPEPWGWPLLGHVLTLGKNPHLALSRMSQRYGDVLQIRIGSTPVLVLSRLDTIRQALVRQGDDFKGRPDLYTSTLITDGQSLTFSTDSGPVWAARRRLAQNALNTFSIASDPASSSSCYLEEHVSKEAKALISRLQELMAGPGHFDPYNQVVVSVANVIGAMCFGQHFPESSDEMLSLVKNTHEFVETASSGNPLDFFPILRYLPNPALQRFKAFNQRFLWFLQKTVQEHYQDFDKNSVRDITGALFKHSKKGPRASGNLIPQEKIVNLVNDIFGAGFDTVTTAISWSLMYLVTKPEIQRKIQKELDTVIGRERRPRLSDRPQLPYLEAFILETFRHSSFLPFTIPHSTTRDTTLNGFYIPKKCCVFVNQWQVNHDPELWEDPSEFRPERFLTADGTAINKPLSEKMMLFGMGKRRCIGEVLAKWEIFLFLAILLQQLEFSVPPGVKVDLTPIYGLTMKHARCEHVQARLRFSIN

[5] = Plasma concentration in rat 10 mg/kg, ip after 60 mins; assay type: ADME, organism-based; parameters: dose 10 mg/kg, route intraperitoneal
[6] = Drug level in rat brain at 10 mg/kg, ip after 60 mins; assay type: ADME, organism-based; parameters: dose 10 mg/kg, route intraperitoneal; settings: read-out: Drug uptake
[7] = Half life in rat at 10 mg/kg, po; assay type: ADME, organism-based; parameters: dose 10 mg/kg, route oral; settings: in vivo
Cytochrome P450 3A4 = Cytochrome P450 3A4 (Homo sapiens, UniProt P08684); test: Inhibition of CYP3A4; assay type: ADME
[8] = Volume of distribution in rat at 10 mg/kg, iv; assay type: ADME, organism-based; parameters: dose 10 mg/kg, route intravenous; settings: in vivo
[9] = Clearance in rat at 10 mg/kg, iv; assay type: ADME, organism-based; parameters: dose 10 mg/kg, route intravenous; settings: in vivo
[10] = Binding affinity to sigma receptor at 10 uM
[11] = Drug level in rat at 10 mg/kg, ip after 48 hrs; assay type: ADME, organism-based; parameters: dose 10 mg/kg, route intraperitoneal; settings: in vivo, read-out: Drug uptake
Cytochrome P450 2C9 = Cytochrome P450 2C9 (Homo sapiens, UniProt P11712); test: Inhibition of CYP2C9; assay type: ADME
Cytochrome P450 2C19 = Cytochrome P450 2C19 (Homo sapiens, UniProt P33261); test: Inhibition of CYP2C19; assay type: ADME
Cytochrome P450 2D6 = Cytochrome P450 2D6 (Homo sapiens, UniProt P10635); test: Inhibition of CYP2D6; assay type: ADME
Histamine H3 receptor [12] = target: Histamine H3 receptor (Rattus norvegicus, UniProt Q9QYN8); test: Antagonist activity at rat histamine H3 receptor; assay type: functional; settings: read-out: pA2 (converted)
[13] = Oral bioavailability in rat at 10 mg/kg; assay type: ADME, organism-based; settings: in vivo

T1 sequence (Q9Y5N1 whole entry): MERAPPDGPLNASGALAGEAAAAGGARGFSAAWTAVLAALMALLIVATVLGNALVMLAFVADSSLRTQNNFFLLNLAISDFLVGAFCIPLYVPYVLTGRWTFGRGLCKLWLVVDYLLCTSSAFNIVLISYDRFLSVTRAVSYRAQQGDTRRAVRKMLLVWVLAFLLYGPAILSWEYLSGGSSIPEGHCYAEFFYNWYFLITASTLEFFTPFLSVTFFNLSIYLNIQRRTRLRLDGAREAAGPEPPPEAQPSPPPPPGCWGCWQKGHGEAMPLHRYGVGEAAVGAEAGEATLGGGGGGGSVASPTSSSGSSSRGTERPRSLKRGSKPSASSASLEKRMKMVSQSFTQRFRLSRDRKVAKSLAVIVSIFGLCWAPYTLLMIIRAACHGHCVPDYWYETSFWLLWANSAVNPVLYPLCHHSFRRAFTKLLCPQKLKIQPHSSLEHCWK
Sequence of Cytochrome P450 3A4 (P08684 whole entry): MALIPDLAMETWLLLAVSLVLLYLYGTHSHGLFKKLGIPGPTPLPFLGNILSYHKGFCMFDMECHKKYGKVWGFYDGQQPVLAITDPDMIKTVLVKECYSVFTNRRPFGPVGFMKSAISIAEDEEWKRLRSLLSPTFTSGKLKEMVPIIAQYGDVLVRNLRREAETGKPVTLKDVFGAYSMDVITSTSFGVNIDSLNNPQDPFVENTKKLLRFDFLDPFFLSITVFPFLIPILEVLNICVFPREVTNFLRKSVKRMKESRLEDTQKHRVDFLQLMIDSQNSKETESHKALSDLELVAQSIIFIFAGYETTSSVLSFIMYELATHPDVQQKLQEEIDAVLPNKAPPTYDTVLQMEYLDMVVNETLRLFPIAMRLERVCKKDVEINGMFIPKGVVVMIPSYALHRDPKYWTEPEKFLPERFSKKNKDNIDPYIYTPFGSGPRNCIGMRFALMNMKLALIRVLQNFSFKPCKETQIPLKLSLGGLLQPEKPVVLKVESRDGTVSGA
Sequence of Cytochrome P450 2D6 (P10635 whole entry): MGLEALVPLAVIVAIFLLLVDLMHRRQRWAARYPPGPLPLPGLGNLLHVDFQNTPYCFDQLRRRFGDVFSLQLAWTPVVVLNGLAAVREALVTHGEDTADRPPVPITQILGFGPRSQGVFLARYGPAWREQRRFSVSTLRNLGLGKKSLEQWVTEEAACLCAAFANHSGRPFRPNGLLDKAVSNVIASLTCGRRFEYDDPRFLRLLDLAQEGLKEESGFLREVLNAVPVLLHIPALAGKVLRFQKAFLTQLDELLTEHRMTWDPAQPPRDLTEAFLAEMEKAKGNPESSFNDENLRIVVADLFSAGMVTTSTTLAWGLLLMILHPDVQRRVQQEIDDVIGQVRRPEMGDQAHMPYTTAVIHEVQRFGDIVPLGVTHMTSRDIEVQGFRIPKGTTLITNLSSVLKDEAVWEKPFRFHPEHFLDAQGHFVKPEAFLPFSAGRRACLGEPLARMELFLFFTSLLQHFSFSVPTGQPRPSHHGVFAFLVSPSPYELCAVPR
Sequence of Histamine H3 receptor (Rattus norvegicus, UniProt Q9QYN8) (Q9QYN8 whole entry): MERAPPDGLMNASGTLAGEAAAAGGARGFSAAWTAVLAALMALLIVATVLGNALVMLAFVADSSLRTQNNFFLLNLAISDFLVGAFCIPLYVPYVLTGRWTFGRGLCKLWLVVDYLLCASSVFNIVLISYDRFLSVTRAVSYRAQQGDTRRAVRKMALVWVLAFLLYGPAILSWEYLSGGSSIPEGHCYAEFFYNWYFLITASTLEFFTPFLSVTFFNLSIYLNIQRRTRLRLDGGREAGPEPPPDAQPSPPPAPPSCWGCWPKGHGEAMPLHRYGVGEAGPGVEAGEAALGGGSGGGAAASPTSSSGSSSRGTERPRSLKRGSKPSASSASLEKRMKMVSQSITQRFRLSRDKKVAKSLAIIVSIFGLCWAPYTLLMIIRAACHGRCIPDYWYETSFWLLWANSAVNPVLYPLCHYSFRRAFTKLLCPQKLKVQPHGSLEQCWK
Sequence of Cytochrome P450 2C19 (P33261 whole entry): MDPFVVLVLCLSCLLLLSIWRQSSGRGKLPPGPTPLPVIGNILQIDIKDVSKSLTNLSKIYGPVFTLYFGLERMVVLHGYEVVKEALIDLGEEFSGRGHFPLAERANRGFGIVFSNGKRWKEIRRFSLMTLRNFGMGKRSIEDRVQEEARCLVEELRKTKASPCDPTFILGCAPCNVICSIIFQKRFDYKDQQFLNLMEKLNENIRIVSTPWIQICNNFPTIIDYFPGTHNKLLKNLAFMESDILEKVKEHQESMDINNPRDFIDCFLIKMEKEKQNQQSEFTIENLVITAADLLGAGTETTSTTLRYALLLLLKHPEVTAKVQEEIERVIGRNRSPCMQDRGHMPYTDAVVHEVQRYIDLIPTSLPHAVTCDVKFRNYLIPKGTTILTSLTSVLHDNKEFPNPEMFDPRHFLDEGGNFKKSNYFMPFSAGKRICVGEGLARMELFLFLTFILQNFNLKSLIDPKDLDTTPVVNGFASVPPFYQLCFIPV
Sequence of Cytochrome P450 2C9 (P11712 whole entry): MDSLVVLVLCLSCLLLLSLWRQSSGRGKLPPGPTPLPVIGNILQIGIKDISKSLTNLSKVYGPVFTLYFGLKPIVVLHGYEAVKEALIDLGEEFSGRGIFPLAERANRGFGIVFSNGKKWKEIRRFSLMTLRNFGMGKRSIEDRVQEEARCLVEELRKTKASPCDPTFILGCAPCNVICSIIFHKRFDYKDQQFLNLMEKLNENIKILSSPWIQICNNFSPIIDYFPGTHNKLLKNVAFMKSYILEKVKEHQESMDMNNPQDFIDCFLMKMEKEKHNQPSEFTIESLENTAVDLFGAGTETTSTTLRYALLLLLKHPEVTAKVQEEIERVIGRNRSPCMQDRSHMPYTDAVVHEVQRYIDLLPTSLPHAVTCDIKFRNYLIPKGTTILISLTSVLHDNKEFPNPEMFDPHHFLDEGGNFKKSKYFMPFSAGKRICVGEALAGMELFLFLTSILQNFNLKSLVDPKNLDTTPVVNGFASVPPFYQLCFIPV

Row | Structure (SMILES) | Ki (Histamine H3 receptor [1]) [nM] | Kb (Histamine H3 receptor [3]) [nM] | other results
1 | Cn1c(C(=O)c2ccc(Cl)cc2)cnc1NCCCN1CCCCC1 | 50 | 39.8 | half-life [2]: > 3 h; half-life [4]: 0.0667 h
2 | CC(C)CCCSc1ncc(C(=O)c2ccc(Cl)cc2)n1C | > 5000 | 10000 | 
3 | c1cc(Sc2ccc([C@H]3CC[C@H]4CCCCN43)cc2)ccn1 | 12 |  | 
4 | Cn1c(C(=O)c2ccc(Cl)cc2)cnc1OCCCN1CCCCC1 | 14 | 12.6 | half-life [2]: > 3 h; half-life [4]: 0.917 h
5 | CC(C)N1CCC(COc2ncc(C(=O)c3cc(Cl)cc(Cl)c3)n2C)CC1 |  | 1 | 
6 | CN(C)CCCSc1ncc(C(O)c2ccc(Cl)cc2)n1C (stereo not given) | 18 | 3.98 | 
7 | Cn1c(C(=O)c2ccc(Cl)cc2)cnc1SCCCCN1CCCCC1 | 50 |  | 
8 | CC(C)N1CCC(CCOc2ncc(C(=O)c3ccc(Cl)cc3)n2C)CC1 | 70 | 79.4 | 
9 | CN(C)CCSc1ncc(Cc2ccc(Cl)cc2)n1C | 71 | 50.1 | 
10 | CC(C)N1CCC(Oc2ncc(C(=O)c3ccc(Cl)cc3)n2C)CC1 | 10 | 6.31 | 
11 | Cn1c(C(=O)c2ccc(Cl)cc2)cnc1CCCCN1CCCCC1 | 24 | 10 | half-life [2]: 2.98 h; half-life [4]: 0.0667 h
12 | CN(C)CCCSc1ncc(Cc2ccc(Cl)cc2)n1C | 20 | 6.31 | 
13 | CC(C)c1ccc(C(=O)c2cnc(OCC3CCN(C(C)C)CC3)n2C)cc1 | 9 | 1.26 | 

Continued by falling Ki (Histamine H3 receptor [1]), values first:

Row | Ki (Histamine H3 receptor [1]) [nM] | Kb (Histamine H3 receptor [3]) [nM] | Structure (SMILES) | other results
14 | 6 | 20 | Cn1c(C(=O)c2ccc(Cl)cc2)cnc1SCCCN1CCCCC1 | half-life [2]: 2.48 h; half-life [4]: 0.117 h
15 | 5 | 2 | CN(C)CCCSc1ncc(C(=O)c2ccc(Cl)cc2)n1C | 
16 | 5 | 0.2 | CC(C)N1CCC(COc2ncc(C(=O)c3cccc(Cl)c3)n2C)CC1 | 
17 | 4 | 1 | CC(C)N1CCC(COc2ncc(C(=O)c3ccc([N+](=O)[O-])cc3)n2C)CC1 | 
18 | 4 |  | CCCCN(CCCC)CCCOc1ccc(-c2cn3cccc(C)c3n2)cc1 | 
19 | 4 | 0.501 | CC(C)N1CCC(COc2ncc(C(=O)c3ccc(C(F)(F)F)cc3)n2C)CC1 | 
20 | 3 | 0.316 | CC(C)N1CCC(COc2ncc(C(=O)c3ccc(F)cc3)n2C)CC1 | 
21 | 3 | 0.794 | CC(C)N1CCC(COc2ncc(C(=O)c3ccc(Br)cc3)n2C)CC1 | 
22 | 3 | 0.501 | CC(C)N1CCC(COc2ncc(C(=O)c3ccc(Cl)cc3)n2C)CC1 | IC50 (Cytochrome P450 1A2): > 10000 nM; concentration at 1 h [5]: 2.6 µM; concentration at 1 h [6]: 17 µM; half-life [7]: 9 h; IC50 (Cytochrome P450 3A4): > 10000 nM; Vd [8]: 5.2 L/kg; clearance [9]: 9.3 mL/min/kg; Activity [10]: 77%; concentration at 48 h [11]: 3.8 µM; IC50 (Cytochrome P450 2C9): > 10000 nM; IC50 (Cytochrome P450 2C19): > 10000 nM; IC50 (Cytochrome P450 2D6): > 10000 nM; Kb (Histamine H3 receptor [12]): 10 nM; bioavailability [13]: 10%
23 | 2 | 0.501 | CC(C)N1CCC(Sc2ncc(C(=O)c3ccc(Cl)cc3)n2C)CC1 | 
24 | 2 | 3.98 | CN(C)CCCSc1ncc(/C(=N\O)c2ccc(Cl)cc2)n1C | 
25 | 1 | 0.00794 | CC(C)N1CCC(COc2ncc(C(=O)c3ccccc3Cl)n2C)CC1 | 
26 | 1 | 0.316 | CC(C)N1CCC(COc2ncc(C(=O)c3ccccc3)n2C)CC1 | 

— ChEMBL document CHEMBL1143321, “Novel imidazole-based histamine H3 antagonists” (Bioorg Med Chem Lett, 2009)
